pIC50: −log10 of the molar value.

In one experiment the target is T1, NavMs (Magnetococcus marinus, UniProt A0L5S6, F208L).
T1 construct: gene Mmc1_0798; full-length homotetrameric channel, thrombin-treated
As to the kind of experiment: X-ray crystal structure with sulphur anomalous signal; […]-19F STD NMR; IC50 from whole-cell patch clamp (SSI shift) in HEK293T cells. In kind it is cell-based. A general note: In patch-clamp work, channel activity is measured electrically.

The target of experiment [1] is NavMs (NavMs F208L, referred to as WT in the paper), prokaryotic voltage-gated sodium channel from Magnetococcus marinus (Magnetococcus marinus) (UniProt A0L5S6). As to the kind of experiment: crystal structure; NavMs (10 mg/ml, 300 uM) with 0.5 mM riluzole in 1% DMSO, or 1% DMSO alone; sitting drops at 4 °C, 30-35% PEG 300, 100 mM HEPES pH 7, 0-100 mM NaCl, HEGA-10 detergent; space group I422, one monomer per asymmetric unit, tetramer by crystal symmetry.

T1 sequence (A0L5S6 entry or part of it F208L): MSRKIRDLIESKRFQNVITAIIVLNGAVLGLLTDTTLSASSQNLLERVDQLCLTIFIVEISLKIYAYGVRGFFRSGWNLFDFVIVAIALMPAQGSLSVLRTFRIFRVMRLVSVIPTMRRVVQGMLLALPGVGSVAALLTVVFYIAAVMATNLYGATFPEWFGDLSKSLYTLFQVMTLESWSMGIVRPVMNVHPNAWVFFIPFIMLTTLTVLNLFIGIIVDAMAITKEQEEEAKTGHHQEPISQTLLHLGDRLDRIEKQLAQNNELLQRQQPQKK

On to `Nc1nc2ccc(OC(F)(F)F)cc2s1` [riluzole, 2-amino-6-(trifluoromethoxy)benzothiazole], for which, on NavMs, the pIC50 was 5.70.

In the case of “NavMs (NavMs F208L, referred to as WT in the paper), prokaryotic voltage-gated sodium channel from Magnetococcus marinus (from UniProt A0L5S6 1-274) (natural protein)”, the stoichiometry N in experiment [1] worked out at 4.

In general, pIC50 refers to the IC50 on a negative log10 scale, so that one unit is a factor of ten. What is called stoichiometry N is the number of molecules, sites or subunits per partner or assembly.

(Values after paper PMC11438954 (Nature Communications, 2024).)
